# Laboratory results reported in patent EP2262764B1, “NOVEL N-BENZYLAMIDE SUBSTITUTED DERIVATIVES OF 2-(ACYLAMIDO)ACETIC ACID AND 2-(ACYLAMIDO)PROPIONIC ACIDS: POTENT NEUROLOGICAL AGENTS” (The University of North Carolina At Chapel Hill, priority 2008, dated 2009).
# Like-named read-outs stand apart in the source and are kept apart here.
# Key:
# [1] = neurologic toxicity (Tox), rat po; assay type: in vivo; settings: in vivo, time in hours in brackets
# [2] = test system: maximal electroshock (MES)-induced seizures; experiment: maximal electroshock seizure (MES) test, rat po; settings: for ED50: Rattus norvegicus, po; for MES, ED50 / PI: Rat (po); for PI: PI = TD50/ED50
# [3] = neurologic toxicity (Tox), rotorod test, mice ip; settings: mouse, in vivo, ip, Tox, TD50, Mice (ip); time in hours in second brackets; [x; y] = between doses x and y
# [4] = test system: maximal electroshock (MES)-induced seizures; experiment: maximal electroshock seizure (MES) test, mice ip; settings: for ED50: Mus musculus, ip
# Excerpt: The structure-activity relationship of functionalized amino acids (1).
# neurologic toxicity [5] = experiment: neurologic toxicity (Tox), rat po; assay type: in vivo; settings: for TD50: in vivo
# 6 Hz seizure model = experiment: 6 Hz seizure model, mice ip
# neurologic toxicity [6] = experiment: neurologic toxicity (Tox), rotorod test, mice ip; settings: for TD50: mouse, in vivo, ip, Tox, TD50, Mice (ip)
# [7] = test system: bi-phasic licking response; experiment: formalin test (0.5% formalin into hind paw, bi-phasic licking response); assay type: in vivo, mouse; settings: dose 16.0 (CH2C≡CH/H), 8.0 (CH3/N3), 20.0 (CH2C≡CH/N3) mg/kg
# Experimental: Compounds of the present invention were active in treating pain in a formalin test carried out in accordance with standard techniques, as described in S. Hunskaar et al., J. Neurosci. Methods 14: 69-76 (1985). Briefly, 0.5% formalin is injected into the mouse hind paw to elicit a bi-phasic licking response, where the first acute phase is thought to correspond to the direct stimulation of peripheral fibers and the second (inflammatory) phase is caused by the release of inflammatory mediators.
# [8] = test system: maximal electroshock (MES)-induced seizures; settings: rat, in vivo, po
# [9] = read-out: MES, ED50, Rat (po), time in hours in brackets
# [10] = read-out: MES, ED50, Rat (po), time of peak effect in hours in brackets in the cell
# [11] = read-out: MES, ED50, Mice (ip), time in hours in second brackets, [x, y] = between doses x and y
# [12] = read-out: MES, ED50, mice, intraperitoneally (ip), 95% confidence intervals in parentheses
# [13] = Mice (ip), time in hours in second brackets, [x, y] = between doses x and y
# [14] = time in hours in brackets in the cell
# [15] = read-out: MES ED50, values of the running text, mice (ip)
# [16] = rotorod test, time of peak effect in hours in brackets in the cell
# [17] = read-out: MES, ED50, Mice (ip), time of peak effect in hours in brackets in the cell
# [18] = time in hours in second brackets, [x, y] = between doses x and y
structure (smiles),measurement,setting,value
C#CCOC[C@@H](NC(C)=O)C(=O)NCc1ccc(N=C=S)cc1 [(R)-9],TD50,[1],> 30 mg/kg
same,ED50,[2]; [9],> 30 mg/kg
same,ED50,[2]; [10],> 30 mg/kg
same,TD50,[3],68 mg/kg
C#CCOC[C@@H](NC(C)=O)C(=O)NCc1ccc(N=[N+]=[N-])cc1 [(R)-8],ED50,"[4]; read-out: MES, ED50",20 mg/kg
same,TD50,[1],> 500 mg/kg
same,ED50,[2]; [9],45 mg/kg
same,ED50,[2]; [10],12 mg/kg
same,TD50,[3],100 to 300 mg/kg
"COC[C@H](NC(C)=O)C(=O)NCc1ccc(N=[N+]=[N-])cc1 [(S)-5, (S)-N-(4-Azidobenzyl)-2-acetamido-3-methoxypropanamide, reference compound]",ED50,[4]; [11],100 to 300 mg/kg
same,ED50,[4]; [12],> 25 mg/kg
same,TD50,neurologic toxicity [5]; time in hours in brackets,> 30 mg/kg
same,ED50,"6 Hz seizure model; Mus musculus, ip, read-out: 6Hz, ED50",~100 mg/kg
same,ED50,[2]; [9],> 30 mg/kg
same,"Tox, TD50",neurologic toxicity [6]; [13],> 300 mg/kg
"O=C1NC(=O)C(c2ccccc2)(c2ccccc2)N1 [phenytoin, reference compound]",TD50,neurologic toxicity [5]; [14],> 3000 mg/kg
same,"MES, ED50",[2]; time in hours in brackets,30 [4] mg/kg
same,ED50,"[2]; read-out: MES, ED50",30 mg/kg
"COC[C@@H](NC(C)=O)C(=O)NCc1ccc(OCc2cccc(F)c2)cc1 [(R)-3, (R)-2-Acetamido-N-(4-(3-fluorobenzyloxy)benzyl)-3-methoxypropanamide]",PI,"[4]; Mice (ip), PI = TD50/ED50",∼9.3
same,ED50,[4]; [11],10 to 30 mg/kg
same,TD50,neurologic toxicity [5]; time in hours in brackets,> 30 mg/kg
same,"Tox, TD50",neurologic toxicity [5]; time in hours in brackets,> 500 [0.5] mg/kg
same,"6Hz, ED50 (given as fraction)","6 Hz seizure model; Mice (ip), […], dose not given",2/4 [0.25]
same,PI,[2],> 36
CC(=O)N[C@@H](C)C(=O)NCc1ccccc1 [(S)-4],ED50,"[4]; read-out: MES, ED50",550 mg/kg
CC(=O)N[C@H](C(=O)NCc1ccccc1)c1ccccc1 [(S)-6],ED50,"[4]; read-out: MES, ED50",> 300 mg/kg
"C=CCOCC(NC(C)=O)C(=O)NCc1ccccc1 (racemic) [(R,S)-11]",ED50,[4]; [15],30 to 100 mg/kg
"CCOCC(NC(C)=O)C(=O)NCc1ccccc1 (racemic) [(R,S)-10]",ED50,[4]; [15],17 mg/kg
"C#CCOC[C@H](NC(C)=O)C(=O)NCc1ccc(N=C=S)cc1 [(S)-9, (S)-N-(4-Isothiocyanatobenzyl)-2-acetamido-3-(prop-2-ynyloxy)propanamide]",ED50,"[4]; read-out: MES, ED50",> 300 mg/kg
same,TD50,neurologic toxicity [6]; [16],> 300 mg/kg
"C#CCOC[C@@H](NC(C)=O)C(=O)NCc1ccccc1 [(R)-7, (R)-N-Benzyl-2-acetamido-3-(prop-2-ynyloxy)propanamide]","Area Under the Curve, % of Control",[7]; Acute phase,48.42%
same,"Area Under the Curve, Drug Tested",[7]; Acute phase,142.9
same,"Area Under the Curve, % of Control",[7]; Inflammatory phase,54.99%
same,"Area Under the Curve, Drug Tested",[7]; Inflammatory phase,468.3
"C#CCOC[C@H](NC(C)=O)C(=O)NCc1ccccc1 [(S)-7, (S)-N-Benzyl-2-acetamido-3-(prop-2-ynyloxy)propanamide]",ED50,[4]; [17],> 300 mg/kg
same,TD50,neurologic toxicity [5]; [14],> 30 mg/kg
same,ED50,[2]; [10],> 30 mg/kg
same,TD50,neurologic toxicity [6]; [16],> 300 mg/kg
COC[C@@H](NC(C)=O)C(=O)NCc1ccc(COc2cccc(F)c2)cc1 [(R)-11],PI,"[4]; Mice (ip), PI = TD50/ED50",∼2.8
same,ED50,[4]; [11],3 to 10 mg/kg
same,"Tox, TD50",neurologic toxicity [5]; time in hours in brackets,> 30 [0.25 to 4.0] mg/kg
same,ED50,[2]; [9],< 30 mg/kg
same,TD50,[3],10 to 30 mg/kg
"C#CCOC[C@H](NC(C)=O)C(=O)NCc1ccc(N=[N+]=[N-])cc1 [(S)-8, (S)-N-(4-Azidobenzyl)-2-acetamido-3-(prop-2-ynyloxy)propanamide]",ED50,[4]; [17],163 mg/kg
same,TD50,neurologic toxicity [5]; [14],> 30 mg/kg
same,ED50,[2]; [10],> 30 mg/kg
same,TD50,neurologic toxicity [6]; [16],> 300 mg/kg
C#CCOC[C@@H](NC(C)=O)C(=O)NCc1ccccc1 [(R)-7],ED50,[4]; [11],10 to 30 mg/kg
same,ED50,[4]; [17],16 mg/kg
same,TD50,[1],> 500 mg/kg
same,ED50,[2]; [9],16 mg/kg
same,ED50,[2]; [10],8 mg/kg
same,TD50,[3],30 to 100 mg/kg
"C#CCOC[C@@H](NC(C)=O)C(=O)NCc1ccc(N=[N+]=[N-])cc1 [(R)-8, (R)-N-(4-Azidobenzyl)-2-acetamido-3-(prop-2-ynyloxy)propanamide]","Area Under the Curve, % of Control",[7]; Acute phase,58.28%
same,"Area Under the Curve, Drug Tested",[7]; Acute phase,119.9
same,"Area Under the Curve, % of Control",[7]; Inflammatory phase,78.17%
same,"Area Under the Curve, Drug Tested",[7]; Inflammatory phase,414.3
COC[C@@H](NC(C)=O)C(=O)NCc1ccc(C(F)(F)F)cc1 [(R)-10],PI,"[4]; Mice (ip), PI = TD50/ED50",∼3.1
same,ED50,[4]; [11],30 to 100 mg/kg
same,TD50,[1],> 30 mg/kg
same,ED50,[2]; [9],< 30 mg/kg
same,TD50,[3],100 to 300 mg/kg
"CCC1(c2ccccc2)C(=O)NC(=O)NC1=O [Phenobarbital, reference compound]",ED50,[4]; [11],22 mg/kg
same,ED50,[4]; [17],22 mg/kg
same,"Tox, TD50",neurologic toxicity [5]; time in hours in brackets,61 [0.5] mg/kg
same,"Tox, TD50",neurologic toxicity [5]; [14],61 [0.5] mg/kg
same,ED50,[2]; [9],9.1 mg/kg
same,ED50,[2]; [10],9 mg/kg
CCCC(CCC)C(=O)O [valproate],PI,"[4]; Mice (ip), PI = TD50/ED50",1.6
same,PI,"[4]; Mice (ip), protective index (TD50/ED50)",1.6
same,"MES, ED50",[4]; [13],270 [0.25] mg/kg
same,ED50,"[4]; read-out: MES, ED50",270 mg/kg
same,PI,[8],0.6
same,"MES, ED50",[2]; time in hours in brackets,490 [0.5] mg/kg
same,ED50,"[2]; read-out: MES, ED50",490 mg/kg
"COC[C@H](NC(C)=O)C(=O)NCc1ccc(OCc2cccc(F)c2)cc1 [(S)-3, (S)-2-Acetamido-N-(4-(3-fluorobenzyloxy)benzyl)-3-methoxypropanamide]",ED50,[4]; [11],> 300 mg/kg
same,TD50,neurologic toxicity [6]; [18],> 300 mg/kg
"COC[C@@H](NC(C)=O)C(=O)NCc1ccc(N=[N+]=[N-])cc1 [(R)-5, (R)-N-(4-Azidobenzyl)-2-acetamido-3-methoxypropanamide, reference compound]",TD50,neurologic toxicity [5]; time in hours in brackets,> 250 mg/kg
same,"Area Under the Curve, % of Control",[7]; Acute phase,58.67%
same,"Area Under the Curve, Drug Tested",[7]; Acute phase,131.4
same,"Area Under the Curve, % of Control",[7]; Inflammatory phase,106.22%
same,"Area Under the Curve, Drug Tested",[7]; Inflammatory phase,694.5
same,PI,[2],> 64
same,ED50,[2]; [9],3.9 mg/kg
same,TD50,neurologic toxicity [6]; [18],46.2 mg/kg
"CC(=O)NC(C)C(=O)NCc1ccccc1 (racemic) [(R,S)-4]",ED50,"[4]; read-out: MES, ED50",77 mg/kg
"CC(=O)NC(C(=O)NCc1ccccc1)c1ccccc1 (racemic) [(R,S)-6]",ED50,[4]; read-out: MES ED50,32 mg/kg
same,ED50,"[4]; read-out: MES, ED50",32 mg/kg
"COCC#Cc1ccc(CNC(=O)[C@@H](COC)NC(C)=O)cc1 [(R)-6, (R)-2-Acetamido-3-methoxy-N-(4-(3-methoxyprop-1-ynyl)benzyl)propanamide, reference compound]",PI,"[4]; Mice (ip), PI = TD50/ED50",∼2.8
same,ED50,[4]; [11],3 to 10 mg/kg
same,ED50,[4]; [12],26 mg/kg
same,TD50,neurologic toxicity [5]; time in hours in brackets,< 30 mg/kg
same,PI,[2],> 30
same,Tox (death),"neurologic toxicity [6]; Mice (ip), observation printed in the Tox, TD50 column",Death at 100
same,TD50,neurologic toxicity [6]; [18],10 to 30 mg/kg
